The text below walks through data of US8916565B2, “Pyrrolopyrazine-spirocyclic piperidine amides as modulators of ion channels” (priority 2011, dated 2014).

A value given as a limit tells only on which side of the number the result lay.

For orientation: IC50 means the concentration needed to halve the response being measured.

The target of the experiment is human NaV subtype, like NaV 1.7 (Homo sapiens, UniProt Q15858). Description: E-VIPR optical membrane potential assay with electrical stimulation. In kind it is cell-based. To be noted: active against one or more sodium channels; Table 3 does not name the assay or NaV subtype; read-out: Binned Activity Data (IC50).
human NaV subtype, like NaV 1.7, sequence (Q15858 whole entry): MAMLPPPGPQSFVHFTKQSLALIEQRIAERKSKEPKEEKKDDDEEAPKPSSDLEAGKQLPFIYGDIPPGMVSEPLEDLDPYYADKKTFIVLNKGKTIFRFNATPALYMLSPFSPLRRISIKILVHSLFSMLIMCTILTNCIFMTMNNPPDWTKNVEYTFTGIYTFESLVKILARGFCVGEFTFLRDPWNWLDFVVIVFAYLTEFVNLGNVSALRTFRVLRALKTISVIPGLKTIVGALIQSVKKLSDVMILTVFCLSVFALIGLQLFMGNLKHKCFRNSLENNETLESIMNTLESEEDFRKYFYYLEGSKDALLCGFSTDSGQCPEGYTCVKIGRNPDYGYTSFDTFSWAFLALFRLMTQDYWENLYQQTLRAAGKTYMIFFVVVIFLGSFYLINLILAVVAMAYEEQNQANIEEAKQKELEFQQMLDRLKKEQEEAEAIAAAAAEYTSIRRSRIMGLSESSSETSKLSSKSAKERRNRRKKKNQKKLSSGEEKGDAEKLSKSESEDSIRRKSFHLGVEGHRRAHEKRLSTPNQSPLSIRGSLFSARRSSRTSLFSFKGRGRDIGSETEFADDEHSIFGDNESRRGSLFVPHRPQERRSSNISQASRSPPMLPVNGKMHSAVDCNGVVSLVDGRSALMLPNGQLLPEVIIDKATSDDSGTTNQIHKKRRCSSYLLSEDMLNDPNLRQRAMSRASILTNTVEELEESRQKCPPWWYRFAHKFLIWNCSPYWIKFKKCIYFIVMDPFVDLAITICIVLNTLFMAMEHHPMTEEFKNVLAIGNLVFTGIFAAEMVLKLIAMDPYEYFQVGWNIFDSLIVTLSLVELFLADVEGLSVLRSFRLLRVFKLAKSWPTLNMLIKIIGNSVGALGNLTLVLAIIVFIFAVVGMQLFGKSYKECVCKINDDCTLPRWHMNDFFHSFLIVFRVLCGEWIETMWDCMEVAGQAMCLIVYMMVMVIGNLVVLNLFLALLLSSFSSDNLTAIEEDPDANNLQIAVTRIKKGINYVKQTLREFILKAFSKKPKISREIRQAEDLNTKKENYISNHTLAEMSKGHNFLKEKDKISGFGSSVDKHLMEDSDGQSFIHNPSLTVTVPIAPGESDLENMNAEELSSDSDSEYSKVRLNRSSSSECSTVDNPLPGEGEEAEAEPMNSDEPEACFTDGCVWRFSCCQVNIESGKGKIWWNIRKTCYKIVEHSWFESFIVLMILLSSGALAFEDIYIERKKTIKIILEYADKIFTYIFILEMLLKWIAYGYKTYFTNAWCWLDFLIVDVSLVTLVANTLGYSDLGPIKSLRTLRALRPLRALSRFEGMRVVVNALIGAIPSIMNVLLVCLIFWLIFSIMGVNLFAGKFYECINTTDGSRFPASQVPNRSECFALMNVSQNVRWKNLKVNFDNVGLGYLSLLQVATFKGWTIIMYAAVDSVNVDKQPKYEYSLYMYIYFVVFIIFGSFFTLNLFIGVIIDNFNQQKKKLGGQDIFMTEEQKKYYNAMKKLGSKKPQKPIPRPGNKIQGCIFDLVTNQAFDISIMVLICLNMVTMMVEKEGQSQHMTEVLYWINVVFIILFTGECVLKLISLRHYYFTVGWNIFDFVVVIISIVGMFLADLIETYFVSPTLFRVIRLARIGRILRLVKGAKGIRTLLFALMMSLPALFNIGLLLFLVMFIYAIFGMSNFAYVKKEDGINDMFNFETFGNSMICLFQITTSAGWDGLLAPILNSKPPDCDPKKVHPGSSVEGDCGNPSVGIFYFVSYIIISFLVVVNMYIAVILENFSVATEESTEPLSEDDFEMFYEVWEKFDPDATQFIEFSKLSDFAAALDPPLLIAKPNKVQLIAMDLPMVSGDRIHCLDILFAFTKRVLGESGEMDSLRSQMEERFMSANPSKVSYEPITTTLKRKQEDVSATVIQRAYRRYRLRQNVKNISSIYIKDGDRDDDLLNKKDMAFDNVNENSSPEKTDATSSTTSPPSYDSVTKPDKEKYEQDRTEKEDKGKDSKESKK
For `O=C(c1ccc(S(=O)(=O)NC2CC2)cc1)N1CCC2(CC1)c1ccc(C(F)(F)F)n1CCN2C1CC1` [Compound 708], the concentration for half-maximal inhibition (IC50) is no more than 2000 nM. The value for `CC(C)Oc1ccc(C(=O)N2CCC3(CC2)c2ccc(C(F)(F)F)n2CCN3C)cc1CO` [Compound 709] was no more than 2000 nM; that for `Cc1cc(C(=O)N2CCC3(CC2)c2ccc(Cl)n2CCN3C)ccc1OC(C)C` [Compound 710] was no more than 2000 nM; that for `Cc1cc(C(=O)N2CCC3(CC2)c2ccc(C(=O)C(C)(C)C)n2CCN3C)ccc1OCCCO` [Compound 711] was no more than 2000 nM. The same measure for `CC(C)COc1ccc(C(=O)N2CCC3(CC2)c2ccc(C(=O)C(F)(F)F)n2CCN3C)nc1` [Compound 712]: no more than 2000 nM. Consider `COc1ccc(C(=O)N2CCC3(CC2)c2c(Cl)cc(C(F)(F)F)n2CCN3C)cc1C` [Compound 713], for which the IC50 fell in the range of 2000 to 5000 nM. The same measure for `Cc1c(O)cccc1C(=O)N1CCC2(CC1)c1ccc(C(=O)C(F)(F)F)n1CCN2C` [Compound 714]: greater than 5000 nM.

As for `Cc1cc(C(=O)N2CCC3(CC2)NCCn2c(C(F)(F)F)ccc23)ccc1C(C)(C)O` [Compound 715], the IC50 is no more than 2000 nM. The same measure for `CNS(=O)(=O)c1ccc(C(=O)N2CCC3(CC2)c2ccc(C(F)(F)F)n2CCN3C)cc1` [Compound 716]: no more than 2000 nM; for `CN1CCn2c(C(=O)C(F)(F)F)ccc2C12CCN(C(=O)c1ccc(-c3ccccc3)c(F)c1)CC2` [Compound 717]: no more than 2000 nM; for `CC(C)Nc1ncccc1C(=O)N1CCC2(CC1)c1ccc(C(F)(F)F)n1CCN2C` [Compound 718]: 2000 to 5000 nM. Take `COc1cc(C(=O)N2CCC3(CC2)c2ccc(C(F)(F)F)n2C(CO)CN3C)ccc1OC(C)C` (centres unmarked) [Compound 719]: the IC50 fell in the range of 2000 to 5000 nM. The same measure for `CN1CCn2c(C(=O)C(F)(F)F)ccc2C12CCN(C(=O)c1ccc(F)c(O)c1)CC2` [Compound 720]: greater than 5000 nM; for `CC(C)Oc1ccc(C(=O)N2CCC3(CC2)NC(C)(C)Cn2c(C(F)(F)F)ccc23)c(F)c1` [Compound 721]: no more than 2000 nM. The value for `COc1cc(C(=O)N2CCC3(CC2)c2ccc(C(F)(F)C(F)(F)F)n2CCN3C)ccc1OC(C)C` [Compound 722] was no more than 2000 nM. The same measure for `Cc1cc(C(=O)N2CCC3(CC2)c2ccc(C(F)(F)F)n2CCN3CC(=O)N(C)C)ccc1OC(C)C` [Compound 723]: no more than 2000 nM. Consider `CN1CCn2c(C(=O)C(F)(F)F)ccc2C12CCN(C(=O)c1ccc(-c3ccccc3F)cn1)CC2` [Compound 725], for which the IC50 was greater than 5000 nM.

As for `COc1ccc(C(=O)N2CCC3(CC2)c2ccc(C(=O)C(F)(F)F)n2C[C@H](C)N3C)cc1C(F)(F)F` [Compound 726], the IC50 is no more than 2000 nM. Take `CC[C@@H](C)Oc1ccc(C(=O)N2CCC3(CC2)c2ccc(C(F)(F)F)n2CCN3C)cc1OC` [Compound 727]: the IC50 was no more than 2000 nM. The same measure for `COc1ccc(-c2ccc(C(=O)N3CCC4(CC3)c3ccc(C(=O)C(F)(F)F)n3CCN4C)cc2C)cc1` [Compound 728]: no more than 2000 nM. The value for `CCOC(=O)N1CCn2c(C#N)ccc2C12CCN(C(=O)c1ccc(OC(C)C)c(C)n1)CC2` [Compound 729] was no more than 2000 nM; that for `CCOc1cc(C(=O)N2CCC3(CC2)c2ccc(C(F)(F)F)n2CCN3C)ccc1OC` [Compound 730] was no more than 2000 nM; that for `Cc1ccnc2c(C(=O)N3CCC4(CC3)c3ccc(C(F)(F)F)n3CCN4C)cnn12` [Compound 731] was 2000 to 5000 nM. The value for `CC(=O)c1ccc2n1CCN(C)C21CCN(C(=O)c2ccc(OC(C)C)c(C(F)(F)F)c2)CC1` [Compound 732] was no more than 2000 nM; that for `CN1CCn2c(C(=O)C(F)(F)F)ccc2C12CCN(C(=O)c1ccc(O)c(C(F)(F)F)c1)CC2` [Compound 733] was no more than 2000 nM; that for `CC(=O)c1ccc2n1CCN(C)C21CCN(C(=O)c2ccc(OC(C)C)c(F)c2)CC1` [Compound 734] was greater than 5000 nM. Consider `COc1ccc(C(=O)N2CCC3(CC2)c2ccc(C(=O)C(C)C)n2CCN3C)cc1C(F)(F)F` [Compound 735], for which the 50% inhibitory concentration (IC50) is no more than 2000 nM. Consider `COCCOc1ccc(C(=O)N2CCC3(CC2)c2c(F)cc(C(F)(F)F)n2CCN3C)cc1` [Compound 736], for which the IC50 was no more than 2000 nM.

For `CCNc1cc(C)nc2c(C(=O)N3CCC4(CC3)c3ccc(C(F)(F)F)n3CCN4C)cnn12` [Compound 737], the IC50 is no more than 2000 nM. The same measure for `COc1ccc(C(=O)N2CCC3(CC2)NC(C)(C)Cn2c(C(=O)C(F)(F)F)ccc23)c(C)c1` [Compound 738]: no more than 2000 nM. The same measure for `CC(=O)c1ccc2n1CCN(C)C21CCN(C(=O)c2ccc(C(OCC(F)(F)F)OCC(F)(F)F)c(Cl)c2)CC1` [Compound 739]: greater than 5000 nM; for `CCCCc1ccc(C(=O)N2CCC3(CC2)c2ccc(C(=O)C(F)(F)F)n2CCN3C)cc1` [Compound 740]: no more than 2000 nM; for `CCOC(=O)N1CCn2c(C(F)(F)F)ccc2C12CCN(C(=O)c1ccc(OC(C)C)c(OC)c1)CC2` [Compound 741]: no more than 2000 nM.

On to `COc1cc(C(=O)N2CCC3(CC2)c2c(C#N)cc(C(F)(F)F)n2CCN3C)ccc1OC(C)C` [Compound 742], for which the IC50 is 2000 to 5000 nM. The same measure for `CN1CCn2c(ccc2C(F)(F)C(F)(F)F)C12CCN(C(=O)c1ccc(C(C)(C)O)cc1)CC2` [Compound 743]: no more than 2000 nM. Take `CC(C)Oc1ccc(C(=O)N2CCC3(CC2)c2ccc(C(=O)C4CC4)n2CCN3C)cc1F` [Compound 744]: the IC50 was no more than 2000 nM. The value for `CC[C@@H](C)Oc1ccc(C(=O)N2CCC3(CC2)NCCn2c(C(F)(F)F)ccc23)cc1OC` [Compound 745] was no more than 2000 nM. The same measure for `COc1ccc(C(=O)N2CCC3(CC2)c2ccc(C(=O)C(F)(F)F)n2CCN3C)nc1C` [Compound 746]: no more than 2000 nM; for `COc1ccc(C(=O)N2CCC3(CC2)c2ccc(C(=O)C(F)(F)F)n2C(C)CN3C)cc1Cl` (centres unmarked) [Compound 747]: no more than 2000 nM; for `CN1CC(C)(C)n2c(C(=O)C(F)(F)F)ccc2C12CCN(C(=O)c1ccc(C(C)(C)O)c(F)c1)CC2` [Compound 748]: greater than 5000 nM. The same measure for `CC(C)Oc1ccc(C(=O)N2CCC3(CC2)c2ccc(C(F)(F)F)n2C[C@@H](C)N3C)c(F)c1` [Compound 749]: 2000 to 5000 nM; for `Cc1cc(C(=O)N2CCC3(CC2)c2ccc(Cl)n2CCN3C)ccc1S(=O)(=O)C(C)C` [Compound 750]: greater than 5000 nM; for `C=C(C)Oc1ccc(C(=O)N2CCC3(CC2)c2ccc(C(F)(F)F)n2CCN3C)cc1OC` [Compound 751]: no more than 2000 nM. Consider `CN1CCn2c(C(=O)C(F)(F)F)ccc2C12CCN(C(=O)c1ccc(S(=O)(=O)N(C)c3nccs3)cc1)CC2` [Compound 752], for which the IC50 was no more than 2000 nM.
